Assay results reported in US8142760B2, “Vaccination for Lawsonia intracellularis” (priority 2008, dated 2012).

Tested on: Lawsonia intracellularis
Experiment: Fecal PCR for L. intracellularis in pigs after controlled exposure
Assay type: in vivo
Conditions: day 28, after 14 days of MECADOX 50 g/ton in feed started 14 days post inoculation
Description: Four groups of pigs totaling 1409 pigs, between 8 and 10 weeks of age and sourced from a single nursery site, were moved to a finishing barn containing four separate rooms. The barn was filled over four consecutive weeks, filling one room per week. Each group of approximately 350 pigs was weighed as a group before placement into a barn room. The four rooms were alternately assigned to two treatment groups, inoculated (T1) and non-inoculated (T2). Sixteen animals per room were randomly selected and individually identified with ear tags.
On day 0, T1 pigs received inoculum of mucosal homogenate from PE-diseased intestine. Samples of inoculum were submitted to a diagnostic lab for quantification of L. intracellularis organisms before administration. The inoculum was delivered to each pen through the watering system and calibrated to deliver an average dose of 10^5±10 L. intracellularis organisms per pig over a 4-6 hour period. T2 pigs received no inoculum.
All pigs received MECADOX (carbadox) (50 g/ton) for at least 14 days in their nursery diets and up until day −3. Non-medicated feed was fed days −3 to 14 (exposure period) to both treatment groups. MECADOX (carbadox) 50 grams/ton medicated feed was fed to all pigs on days 14 to 28. From day 28 to end of study, all pigs received non-medicated feed. […]

Compound: COC(=O)N/N=C/c1c[n+]([O-])c2ccccc2[n+]1[O-] [MECADOX (carbadox), carbadox]
- sampled, infected pigs negative by fecal PCR for L. intracellularis: 100%
